4 compounds from patent US9200017B2, “Multimodal imaging of fibrin” (The General Hospital Corporation, priority 2009, dated 2015) can be followed below.

Positions of bridges follow the written chain, without caps; N, C: chain ends. Non-standard residues stand in square brackets, D forms with d. Residues, ends and D or L forms follow the SMILES beside them. *: point of attachment. DOTA(p-xylylenediamine) = O=C(O)CN1CCN(CC(=O)O)CCN(CC(=O)NCc2ccc(CN*)cc2)CCN(CC(=O)O)CC1; X1 = O=C1OC2(c3ccc(O)cc3Oc3cc(O)ccc32)c2ccc(NC(=S)NCc3ccc(CN*)cc3)cc21; FITC = O=C1OC2(c3ccc(O)cc3Oc3cc(O)ccc32)c2ccc(NC(=S)*)cc21; DOTA = O=C(O)CN1CCN(CC(=O)O)CCN(CC(=O)*)CCN(CC(=O)O)CC1; Tyr(3-Cl) = N[C@@H](Cc1ccc(O)c(Cl)c1)C(=O)O; Hyp = O=C(O)[C@@H]1C[C@@H](O)CN1; Ahx = NCCCCCC(=O)O

The target in test [1] is T1, Human fibrin (Homo sapiens, UniProt P02671+P02675+P02679).
T1 construct: thrombin cleaves fibrinopeptides on fibrinogen resulting in an end-to-end polymerization to give the polymer fibrin; Human fibrinogen (American Diagnostica) was dialyzed; purchased American Diagnostica
T1 sequence (P02671 36-629 limits assumed): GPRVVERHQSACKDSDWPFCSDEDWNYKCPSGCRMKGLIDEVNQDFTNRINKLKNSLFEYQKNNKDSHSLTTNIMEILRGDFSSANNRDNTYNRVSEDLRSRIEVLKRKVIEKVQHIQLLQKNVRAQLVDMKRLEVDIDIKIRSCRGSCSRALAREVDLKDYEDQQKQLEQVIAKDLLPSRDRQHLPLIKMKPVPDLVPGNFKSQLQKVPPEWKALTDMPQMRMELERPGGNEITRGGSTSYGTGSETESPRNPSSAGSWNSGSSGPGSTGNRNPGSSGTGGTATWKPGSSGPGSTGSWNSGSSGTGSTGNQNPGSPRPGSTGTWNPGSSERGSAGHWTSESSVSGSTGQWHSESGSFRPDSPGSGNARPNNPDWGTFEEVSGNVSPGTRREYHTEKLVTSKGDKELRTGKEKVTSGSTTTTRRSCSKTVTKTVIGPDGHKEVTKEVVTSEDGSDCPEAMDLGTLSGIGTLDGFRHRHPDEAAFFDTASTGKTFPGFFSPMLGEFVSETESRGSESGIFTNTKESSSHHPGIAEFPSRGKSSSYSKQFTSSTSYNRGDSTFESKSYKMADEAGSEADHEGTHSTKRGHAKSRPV
T1 sequence (P02675 45-491 limits assumed): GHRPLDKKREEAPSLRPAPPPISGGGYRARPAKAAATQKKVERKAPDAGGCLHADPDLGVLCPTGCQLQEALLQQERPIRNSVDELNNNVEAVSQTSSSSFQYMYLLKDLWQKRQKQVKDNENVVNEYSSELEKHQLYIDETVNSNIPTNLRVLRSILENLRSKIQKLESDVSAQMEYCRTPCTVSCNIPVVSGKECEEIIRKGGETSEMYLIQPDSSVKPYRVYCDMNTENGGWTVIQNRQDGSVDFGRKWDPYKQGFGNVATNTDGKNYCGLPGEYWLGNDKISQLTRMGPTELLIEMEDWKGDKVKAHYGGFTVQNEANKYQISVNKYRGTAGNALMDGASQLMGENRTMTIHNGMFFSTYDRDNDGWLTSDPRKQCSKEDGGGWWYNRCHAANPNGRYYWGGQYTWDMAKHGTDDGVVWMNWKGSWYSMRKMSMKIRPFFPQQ
T1 sequence (P02679 27-437 isoform P02679-2 limits assumed): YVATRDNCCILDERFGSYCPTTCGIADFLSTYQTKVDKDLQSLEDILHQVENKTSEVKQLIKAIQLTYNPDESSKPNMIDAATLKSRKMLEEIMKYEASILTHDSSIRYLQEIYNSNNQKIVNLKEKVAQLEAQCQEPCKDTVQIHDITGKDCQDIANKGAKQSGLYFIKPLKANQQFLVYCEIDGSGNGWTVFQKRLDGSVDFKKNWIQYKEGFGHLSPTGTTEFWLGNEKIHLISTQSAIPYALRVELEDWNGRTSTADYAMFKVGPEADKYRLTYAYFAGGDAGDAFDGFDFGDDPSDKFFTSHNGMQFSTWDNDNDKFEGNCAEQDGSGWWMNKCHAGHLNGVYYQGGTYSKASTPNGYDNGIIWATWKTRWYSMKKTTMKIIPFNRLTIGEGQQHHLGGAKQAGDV
The experiment in a line: Binding to human fibrin, dried fibrin microtiter plate, stoichiometric binding model. As to conditions: dried human fibrin about 2.5 mg/mL, compound 0.1 to 50 μM, 2 h; read-out: Kd, first binding event. How it is done: Binding can also be assessed by a dried fibrin assay. Here, purified fibrinogen (2.5 mg/mL; 7 μM fibrin) is clotted with thrombin and dried to a thin film in wells of a microtiter plate. The resulting clots bind to the plate without loss of protein. The clots are rehydrated with buffer containing known concentrations of peptide. After incubation at 37° C. for 2 hr, the concentration of peptide in the supernatant ([peptide]free) is determined (e.g. by HPLC or if the peptide is labeled with a fluorophore by fluorescence, or if labeled by a radionuclide concentration is determined by radioactivity). The concentration of fibrin-bound peptide ([peptide]bound) is calculated by subtraction ([peptide]bound)=[peptide]total−[peptide]free). A dissociation constant (Kd) for fibrin binding can be determined by fitting a plot of [peptide]bound versus [peptide]free to either a stoichiometric (see e.g. Nair et al., Angew Chem Int Ed 2008 47:4918-21) or equivalent binding sites model (see e.g. Overoye-Chan et al. J Am Chem Soc 2008 130:6025-39). […]
Solutions of compound ranging from 0.1 to 50 μM were added to each of the wells of the dried fibrin microtiter plate, and the plate was shaken for 2 h. After incubation, solution was removed and the concentration of unbound compound was determined from its radioactivity or by ICP-MS. […]

The target of test [2] is T2, fibrin gel (Homo sapiens, UniProt P02671+P02675+P02679).
T2 construct: thrombin cleaves fibrinopeptides on fibrinogen resulting in an end-to-end polymerization to give the polymer fibrin; Fibrin is a fibrillar protein derived from the soluble plasma protein fibrinogen
T2 sequence (P02671 36-629 limits assumed): T1 sequence (P02671 36-629 limits assumed)
T2 sequence (P02675 45-491 limits assumed): T1 sequence (P02675 45-491 limits assumed)
T2 sequence (P02679 27-437 isoform P02679-2 limits assumed): T1 sequence (P02679 27-437 isoform P02679-2 limits assumed)
The experiment in a line: Phantom study with fluorescence imaging in fibrinogen solution and fibrin gel. As to conditions: 50 nM in 2 mg/mL fibrin gel. How it is done:
A 10 mM solution of fluorescein was prepared in ethanol by adding 0.0113 g of fluorescein to 3 mL EtOH. This solution was diluted in water to prepare a 9.99 μM solution. Also, a dilute solution of GdDOTA-cyclic-FBP-p-XD-FITC was prepared with a final concentration of 8.55 μM. Four phantoms were prepared in 1 mL glass tubes. Each phantom contained fibrinogen at a final concentration of 2 mg/mL, 50 pmol of GdDOTA-cyclic-FBP-p-XD-FITC or fluorescein, at a total volume of 1 mL. In two of the phantoms, fibrin gels were prepared by adding CaCl2 and thrombin to a final concentration of 7 mM and 4 U/mL, respectively. Once the clots had formed, the mixture was centrifuged and the clots settled to the bottom. The 4 phantoms were labeled: A) GdDOTA-cyclic-FBP-p-XD-FITC in fgn; B) GdDOTA-cyclic-FBP-p-XD-FITC in fbn gel; C) fluorescein in fbn gel D) fluorescein in fgn. The phantoms were imaged with an IVIS Spectrum imager.

The test system of test [3] is fibrin gel. In words: MR phantom study at 1.5 T in fibrinogen solution and fibrin gel. As to conditions: 25 μM Gd in 5 mg/mL fibrin gel, T1-weighted. On the procedure: Fibrinogen (fgn) (50 mg, American Diagnostica) was dissolved in 1 mL of TBS (50 mM Tris, 150 mM sodium chloride, pH 7.4) and was dialyzed against TBS with 5 mM sodium citrate. The concentration of the resulting fibrinogen solution was 8.8 mg/mL based on the absorbance at 280 nm where 1 mg/mL fgn has an optical density of 1.512 for a 1 cm path length. Solutions were prepared by diluting stock solutions of gadolinium probe and fgn to final solutions of 25 μM Gd and 5 mg/mL fgn. Gadolinium concentrations were determined by ICP-MS. Fibrin gels were prepared by adding CaCl2 and thrombin to a final concentration of 7 mM and 4 U/mL, respectively. After briefly mixing the CaCl2 and thrombin, the solutions were allowed to gel/clot for 30 minutes. After fibrin (fbn) formation was complete, the clots were pushed to the wall of the tube with a pipet tip. A total of 6×0.5 mL phantoms were prepared in 1 mL centrifuge tubes: A) pure water; B) 5 mg/mL fibrinogen; C) [Gd(HP-DO3A)] at 25 μM in 5 mg/mL fgn; D) [Gd(HP-DO3A)] at 25 μM in 5 mg/mL fbn gel; E) GdDOTA-cyclic-FBP-p-XD-FITC (compound 17) at 25 μM in 5 mg/mL fgn; F) GdDOTA-cyclic-FBP-p-XD-FITC (compound 17) at 25 μM in 5 mg/mL fbn gel.
All 6 phantoms were simultaneously imaged at room temperature at 1.5 T with a clinical MRI. T1-weighted gradient echo images were acquired with repetition time TR=9.2 ms, echo time TE=1.9 ms, flip angle=25°.

In test [4] the target is T2, fibrin gel. The experiment in a line: Phantom study with PET in fibrinogen solution and fibrin gel. Conditions: 2 mg/mL fibrin gel, 150 nCi, 2.3 nmol, 21° C. On the procedure: ^64CuDOTA was prepared by reacting 200 μCi of ^64CuCl2 with DOTA ligand (50 nmol) in 200 μL water at pH 6.5. The pH of the solution was maintained at 6.5 and the reaction was stirred at 50° C. for 30 min. The solution was then passed through a cation-exchange resin. The resin was washed with water and the total final volume was 600 μL.
Six phantoms were prepared in 4 mL glass culture tubes. Each phantom contained fibrinogen (fgn) at a final concentration of 2 mg/mL, 2.3 nmol of peptide or DOTA, a total volume of 2 mL, and a total activity of 150 nCi. In 3 of the phantoms, Fibrin gels (fbn) were prepared by adding CaCl2 and thrombin to a final concentration of 7 mM and 4 U/mL, respectively. Once the clots had formed, the mixture was centrifuged and the clots settled to the bottom. […]
The 6 tubes were placed in a holder with each tube equidistant from the isocenter and PET data was collected for 15 minutes. […] Each of the 32 PET detector modules consists of six 12×12 LSO crystal arrays read out by a 3×3 array of APDs (Hamamatsu 8664-55, Japan). […] The emission data recorded in list-mode format were sorted in the line of response space and compressed axially in the sinogram space for fast reconstruction. The normalization was calculated from a 64-hour scan of a plane-source rotated in the FOV. […]

For the compound `CC[C@H](C)[C@H](NC(=O)[C@H](Cc1ccc(O)cc1)NC(=O)[C@@H]1CSSC[C@H](NC(=O)[C@@H](CCC(=O)O)NC(=O)[C@H](Cc2ccc(O)cc2)NC(=O)CCCCCNC(=S)Nc2ccc3c(c2)C(=O)OC32c3ccc(O)cc3Oc3cc(O)ccc32)C(=O)N2C[C@H](O)C[C@H]2C(=O)N[C@@H](Cc2ccc(O)c(Cl)c2)C(=O)NCC(=O)N[C@@H](CC(C)C)C(=O)N1)C(=O)N[C@@H](CCC(N)=O)C(=O)NCc1ccc(CNC(=O)CN2CCN(CC(=O)O)CCN(CC(=O)O)CCN(CC(=O)O)CC2)cc1` [Compound 11, FITC-hexyl-cyclic-FBP-p-XD-DOTA-Gd] ({FITC-Ahx}-Y[dE]C[Hyp][Tyr(3-Cl)]GLCYIQ-{DOTA(p-xylylenediamine)}; disulfide 3-8), the dissociation constant (Kd) in test [1] was 900 ± 300 nM.

Consider `CC[C@H](C)[C@H](NC(=O)[C@H](Cc1ccc(O)cc1)NC(=O)[C@@H]1CSSC[C@H](NC(=O)[C@@H](CCC(=O)O)NC(=O)[C@H](Cc2ccc(O)cc2)NC(=O)CN2CCN(CC(=O)O)CCN(CC(=O)O)CCN(CC(=O)O)CC2)C(=O)N2C[C@H](O)C[C@H]2C(=O)N[C@@H](Cc2ccc(O)c(Cl)c2)C(=O)NCC(=O)N[C@@H](CC(C)C)C(=O)N1)C(=O)N[C@@H](CCC(N)=O)C(=O)NCc1ccc(CNC(=S)Nc2ccc3c(c2)C(=O)OC32c3ccc(O)cc3Oc3cc(O)ccc32)cc1` [Compound 17, GdDOTA-cyclic-FBP-p-XD-FITC] ({DOTA}-Y[dE]C[Hyp][Tyr(3-Cl)]GLCYIQ-X1; disulfide 3-8), for which the “Fluorescence intensity distribution between fibrin clot and liquid” value in test [2] is “localizes in the fibrin clot”. In test [3], the “MR signal distribution between clotted fibrin and supernatant” value is on record as “binding to the fibrin”. Moreover, the Kd in test [1] worked out at 800 ± 300 nM.

In the case of `CC(O)CN1CCN(CC(=O)[O-])CCN(CC(=O)[O-])CCN(CC(=O)[O-])CC1.[Gd+3]` (stereo not drawn) [GdHP-DO3A, reference compound], the “MR signal distribution between clotted fibrin and supernatant” value in test [3] is “distributed equally between the clotted fibrin and the supernatant”.

As for `O=C([O-])CN1CCN(CC(=O)O)CCN(CC(=O)[O-])CCN(CC(=O)O)CC1.[64Cu+2]` [^64CuDOTA], the “PET activity distribution between fibrin clot and liquid above the clot” value in test [4] is “distributed equally in the clot (bottom of tube B) and in the liquid above the clot”.
